Test results from US20120276098A1, “DRUG FUSIONS AND CONJUGATES WITH EXTENDED HALF LIFE” (priority 2009, published 2012).
Read-outs that look alike come from different tables or passages of the source. Marks after values point to notes of the source that are not given here.

How the values were obtained:
db/db C57BL/6J mice = assay: Chronic diabetes efficacy study in db/db mice, peptide-AlbudAbs alone and combined; format: in vivo, mouse; settings: for decrease in glycosylated HbAlc: baseline vs day 16; for plasma insulin levels: day 16
Protocol: Male db/db C57BL/6J mice (Jackson Labs, Bar Harbor, Me.) were used for all experiments. The db/db mice (B6.Cg-m +/+ Leprdb/J) and controls were group-housed by the vendor. The db/db mice (10-12 weeks of age), and age-matched controls were shipped to GSK where they were single-housed and maintained at constant temperature (approximately 22° C.) with 12 hr light/dark cycle (lights on from 5:00 AM to 5:00 PM). Mice were given ad libitum access to food (LabDiet 5K67, 16% fat for db/db and their controls) and water. All animal protocols were approved by the institutional animal care and use committee at GlaxoSmithKline in Research Triangle Park, N.C. The peptide-AlbudAbs were prepared fresh daily. The correct dosing concentration of the drug was obtained by diluting the master stock using a citrate vehicle buffer comprised of 100 mM NaCl, 20 mM citric acid, pH 6.2 (filter sterilized). For combination dosing, the drugs were mixed together so that only one injection would be required.
Chronic Diabetes Efficacy Studies: The db/db mice and age-matched lean controls were habituated in house 2 weeks before the start of the study. Animals were dosed every two days between 2-4 pm subcutaneously with a dose volume of 5 ml/kg over a period of 15 days. A three day vehicle lead in period was used before the start of drug with the first day being vehicle and the second two days being mock injections. Baseline fat mass and lean mass measurements were taken 3 days before the start of drug and on day 15 using a QMR instrument (Echo Medical Systems, Houston, Tex.) Body weight measurements were taken every Monday, Wednesday, and Friday starting four days before the first drug dose. […] Food hopper weights were measured every weekday starting 4-6 days before the first drug dose, allowing for the calculation of food intake. Animals that created excessive food spillage were removed prior to the beginning of the study. During the study, excess food was removed from the cage and added to the food hopper weights for increased accuracy. Eight animals (n=8) were used for the lean control group and eight animals (n=8) were used for all other treatment groups. A pair-fed control was included in which the daily food intake for the combination ED80 group was calculated and that amount of food was given to the pair-fed group to eat the next day. Sixteen days after the start of drug treatment, animals were fasted for at least 4 hours before collection of whole blood, plasma, and serum samples via terminal cardiac exsanguinations. The whole blood was used to determine the % HbAlc, the plasma was used for a gastrointestinal hormone panel, and the serum was used to access multiple chemistries. Finally, major organs and tissues were collected (heart, kidney, liver, lung, stomach, duodenum, colon, pancreas, brown adipose, white adipose, carcass) on day 16 and fixed in 10% neutral buffered formalin for macroscopic and microscopic histological examination.

GLP1R [1] = target: T1, GLP1R (Homo sapiens, UniProt P43220); assay: melanophore functional bioassay, human GLP1R; format: cell-based; design: expressed in transfected cells; host or cells: melanophores; settings: melanophores transfected with receptor
Protocol: (§1) The bioassay was performed essentially as described in Jayawickreme et al. (2005) Current Protocols in Pharmacology 12.9.1-12.9.16.

GLP1R [2] = target: T2, GLP1R (Mus musculus, UniProt O35659); assay: melanophore functional bioassay, mouse GLP1R; format: cell-based; settings: melanophores transfected with receptor
T2 construct: expressed in transfected cells; host or cells: melanophores
T2 sequence (O35659 22-463): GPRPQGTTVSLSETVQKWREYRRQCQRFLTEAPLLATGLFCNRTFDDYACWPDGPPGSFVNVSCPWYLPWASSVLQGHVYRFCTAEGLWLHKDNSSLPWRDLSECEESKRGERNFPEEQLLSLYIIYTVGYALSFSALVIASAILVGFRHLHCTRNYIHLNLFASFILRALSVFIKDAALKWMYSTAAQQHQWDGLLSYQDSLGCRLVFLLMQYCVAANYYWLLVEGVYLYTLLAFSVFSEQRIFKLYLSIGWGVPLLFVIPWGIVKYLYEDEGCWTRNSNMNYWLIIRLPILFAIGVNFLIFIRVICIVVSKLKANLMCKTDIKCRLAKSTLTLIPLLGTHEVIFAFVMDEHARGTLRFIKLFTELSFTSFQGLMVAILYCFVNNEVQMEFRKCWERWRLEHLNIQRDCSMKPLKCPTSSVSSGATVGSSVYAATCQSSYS
Protocol: as §1

[3] = test system: diet induced obese (DIO) C57BL/6 mice; assay: Chronic obesity efficacy study in diet induced obese (DIO) mice, peptide-AlbudAbs alone and combined; format: in vivo, mouse
Protocol: Male diet induced obese (DIO) C57BL/6 mice (Taconic, Hudson, N.Y.) and lean C57BL/6 mice (Taconic, Hudson, N.Y.) were used for all experiments. DIO C57BL/6 mice were group housed and fed a high fat diet (45% fat by kcal) by the vendor from the time of weaning. DIO mice (40-50 g body weight) and age-matched controls were single-housed and maintained at constant temperature (approximately 22° C.) with 12 hr light/dark cycle (lights on from 5:00 AM to 5:00 PM). Mice were given ad libitum access to food (Research Diets D12451, 45% fat for DIO; Lab Diet 5001, 13.5% fat for lean) and water. All animal protocols were approved by the institutional animal care and use committee at GlaxoSmithKline in Research Triangle Park, N.C. The peptide-AlbudAbs were either prepared fresh daily or were prepared once and frozen at −70 deg C. in aliquots. For combination dosing, the drugs were mixed together so that only one injection would be required.
Chronic Obesity Efficacy Studies: DIO C56BL/6 mice and age-matched lean controls were habituated in house for 6 weeks before the start of the study. Animals were dosed every two days between 2-4 pm subcutaneously with a dose volume of 5 ml/kg over a period of 15 days.
A three day vehicle lead in period was used before the start of drug with the first day being vehicle and the second two days being mock injections. Baseline fat mass and lean mass measurements were taken 3-4 days before the start of drug and on day 15 using a QMR instrument (Echo Medical Systems, Houston, Tex.) Body weight measurements were taken every Monday, Wednesday, and Friday starting four days before the first drug dose, with the first measurement being used to randomize the animals. Food hopper weights were measured every weekday starting 4-6 days before the first drug dose, allowing for the calculation of food intake. Animals that created excessive food spillage were removed prior to the beginning of the study. During the study, excess food was removed from the cage and added to the food hopper weights for increased accuracy. Eight to ten animals (n=8-10) were used for the lean control group and eight animals (n=8) were used for all other treatment groups. Sixteen days after the start of drug treatment, animals were fasted for at least 4 hours before collection of whole blood, plasma, and serum samples via terminal cardiac exsanguinations. The whole blood was used to determine the % HbAlc, the plasma was used for a gastrointestinal hormone panel, and the serum was used to access multiple clinical chemistry parameters. Finally, major organs and tissues were collected (heart, kidney, liver, lung, stomach, duodenum, colon, pancreas, brown adipose, white adipose, carcass) on day 16 and fixed in 10% neutral buffered formalin for macroscopic and microscopic histological examination.

GLP1R [4] = target: T1, GLP1R; assay: GLP-1 receptor binding assay (GLP-1R BA), CHO 6CRE GLP1R luciferase reporter cells; format: cell-based; design: expressed in transfected cells; host or cells: CHO K1 (CHO 6CRE GLP1R cells)
Protocol: Fusions were buffer exchanged into 100 mM […], 20 mM citrate pH 6.2. Meanwhile,CHO 6CRE GLP1R cells (CHO K1 cells (obtainable from the American Type Tissue Collection, ATCC) stably transfected with 6 cAMP response element driving a luciferase reporter gene and also with the human GLP-1 receptor) were seeded at 2×10^5cells/mL in suspension media. Suspension culture was maintained for 24 hours. Cells were then diluted into 15 mM HEPES buffer (obtainable from Sigma), containing 2 mM L glutamine (2.5×10^5 cells/ml) and dispensed into 384-well plates containing 10 ul/well of the compound to be assayed. After the addition of assay control, plates were returned to the incubator for 3 h at 37° C. and 5% CO2. […] Plates were placed in the reader (Viewlux, Perkin Elmer) and pre-incubated for 5 minutes prior to reading the […] and plotting of results. Compound was assayed at a range of concentrations in the presence and absence of 10 uM albumin, allowing a dose response curve to be fitted with and without the albumin.

Rat serum albumin (RSA) = Rat serum albumin (RSA) (Rattus norvegicus, UniProt P02770); format: binding
Protocol: (§2) The analysis was performed using a CM5 Biacore chip (carboxymethylated dextran matrix) that was coated with serum albumin. About 1000 resonance units (RUs) of each serum albumin to be tested (human, rat and mouse serum albumin) was immobilised in acetate buffer pH 5.5. Flow cell 1 of the Biocore AB was an uncoated, blocked negative control, flow cell 2 was coated with Human serum albumin (HSA) (815 RUs) flow cell 3 was coated with Rat serum albumin (RSA)(826RUs) and flow cell 4 was coated with Mouse serum albumin (MSA) (938 RUs). Each fusion molecule tested was expressed in mammalian tissue culture as described in the example above.
(§3) A range of concentrations of the fusion molecule were prepared (in the range 16 nM to 2 μM) by dilution into BIACORE HBS-EP buffer (0.01 M HEPES, pH7.4, 0.15 M NaCl, 3 mM EDTA, 0.005% surfactant P20) and flowed across the BIACORE chip.
(§4) Affinity (KD) was calculated from the BIACORE traces by fitting on-rate and off-rate curves to traces generated by concentrations of dAb in the region of the KD.

[5] = target: Mouse serum albumin (MSA) (Mus musculus, UniProt P07724); format: binding
Protocol: as §2, §3, §4

[6] = target: Human serum albumin (HSA) (Homo sapiens, UniProt P02768); format: binding
Protocol: as §2, §3, §4

[7] = ED20 doses: PYY-AlbudAb 0.1 mg/kg, Exendin-4-AlbudAb 0.01 mg/kg, Combo ED20
[8] = ED80 Doses: PYY-Alb 1.0 mg/kg, Exn-Alb 0.1 mg/kg, Combo
[9] = day 16, ED80 doses: Exendin-4-AlbudAb 0.1 mg/kg, Combo ED80
[10] = read-out: GLP-1R BA (10 uM albumin) EC50 (pM) n = 2, presence of 10 uM albumin
[11] = read-out: GLP-1R BA EC50 (pM) n = 3, absence of albumin

T1 sequence (P43220 24-463): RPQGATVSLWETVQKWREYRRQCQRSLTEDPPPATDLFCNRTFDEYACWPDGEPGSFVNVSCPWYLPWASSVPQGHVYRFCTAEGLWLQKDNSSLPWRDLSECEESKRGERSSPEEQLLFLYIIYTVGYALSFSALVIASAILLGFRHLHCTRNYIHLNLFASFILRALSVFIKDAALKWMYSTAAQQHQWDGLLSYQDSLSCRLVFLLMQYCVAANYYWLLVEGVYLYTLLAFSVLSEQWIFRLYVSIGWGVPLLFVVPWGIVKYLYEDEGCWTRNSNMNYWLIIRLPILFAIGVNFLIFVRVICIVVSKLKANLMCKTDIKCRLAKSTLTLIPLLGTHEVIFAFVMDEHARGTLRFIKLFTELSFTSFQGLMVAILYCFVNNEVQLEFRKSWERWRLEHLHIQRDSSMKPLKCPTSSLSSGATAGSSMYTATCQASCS
Sequence of Mouse serum albumin (MSA) (P07724 25-608): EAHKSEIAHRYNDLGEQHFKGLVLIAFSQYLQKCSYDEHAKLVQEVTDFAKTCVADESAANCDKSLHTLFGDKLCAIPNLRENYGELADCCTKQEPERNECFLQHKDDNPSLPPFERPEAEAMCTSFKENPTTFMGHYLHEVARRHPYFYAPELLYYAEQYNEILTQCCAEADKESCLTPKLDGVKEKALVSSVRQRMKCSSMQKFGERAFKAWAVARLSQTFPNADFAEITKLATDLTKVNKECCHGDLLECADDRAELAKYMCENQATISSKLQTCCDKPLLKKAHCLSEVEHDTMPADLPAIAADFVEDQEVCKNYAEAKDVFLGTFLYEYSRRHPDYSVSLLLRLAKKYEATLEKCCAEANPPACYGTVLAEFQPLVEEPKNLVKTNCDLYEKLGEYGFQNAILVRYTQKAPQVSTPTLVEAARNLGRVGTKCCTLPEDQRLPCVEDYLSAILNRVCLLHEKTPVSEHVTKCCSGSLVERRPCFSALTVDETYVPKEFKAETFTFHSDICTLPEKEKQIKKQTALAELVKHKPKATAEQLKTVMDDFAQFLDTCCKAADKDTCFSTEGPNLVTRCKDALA
Sequence of Rat serum albumin (RSA) (P02770 25-608): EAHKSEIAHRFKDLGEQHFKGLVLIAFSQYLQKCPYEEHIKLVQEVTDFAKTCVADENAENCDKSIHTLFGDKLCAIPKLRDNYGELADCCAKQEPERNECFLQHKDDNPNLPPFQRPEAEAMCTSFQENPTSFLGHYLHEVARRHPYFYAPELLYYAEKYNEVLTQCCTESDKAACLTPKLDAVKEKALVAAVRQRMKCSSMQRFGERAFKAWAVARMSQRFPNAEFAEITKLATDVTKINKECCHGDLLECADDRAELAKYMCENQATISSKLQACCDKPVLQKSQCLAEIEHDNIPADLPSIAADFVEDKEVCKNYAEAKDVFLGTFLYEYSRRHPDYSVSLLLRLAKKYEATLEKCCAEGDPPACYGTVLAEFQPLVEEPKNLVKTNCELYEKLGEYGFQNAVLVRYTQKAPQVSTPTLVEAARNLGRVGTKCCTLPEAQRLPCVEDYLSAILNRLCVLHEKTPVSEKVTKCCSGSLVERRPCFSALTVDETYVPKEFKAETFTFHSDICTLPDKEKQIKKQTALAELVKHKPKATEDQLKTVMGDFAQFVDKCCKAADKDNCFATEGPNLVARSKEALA

DAT 0115: genetic fusion: exendin-4, (G4S)3 linker, 7h-14 AlbudAb, SEQ ID NO 2
inhibition of weight gain (in words) (db/db C57BL/6J mice; PYY-AlbudAb 1.0 mg/kg, Exendin-4-AlbudAb 0.1 mg/kg, Combo ED80): effective at inhibiting weight gain
decrease in glycosylated HbAlc (db/db C57BL/6J mice; [7]): no significant changes
decrease in glycosylated HbAlc (db/db C57BL/6J mice; ED80 doses: PYY-AlbudAb 1.0 mg/kg, Exendin-4-AlbudAb 0.1 mg/kg, Combo ED80): 0.80%
decrease in body weight from vehicle (db/db C57BL/6J mice; day 15, ED80 doses: PYY-AlbudAb 1.0 mg/kg, Exendin-4-AlbudAb 0.1 mg/kg, Combo ED80): 9.2%
decrease in body weight relative to vehicle control (db/db C57BL/6J mice; day 15, PYY-AlbudAb 0.1 mg/kg, Exendin-4-AlbudAb 0.01 mg/kg): no significant effect
plasma insulin levels (db/db C57BL/6J mice; [7]): trends towards increases
plasma insulin levels (db/db C57BL/6J mice; ED80 doses: PYY-AlbudAb 1.0 mg/kg, Exendin-4-AlbudAb (dose not given), Combo ED80): 32036 pg/mL
pEC50 Human GLP1R (GLP1R [1]): 11.36
pEC50 Mouse GLP1R (GLP1R [2]): 11.06
decrease in percent body fat (normalized to changes in vehicle controls) ([3]; 15 day treatment, ED20 doses: PYY-AlbudAb 0.1 mg/kg, Exendin-4-AlbudAb 0.01 mg/kg, Combo ED20): 0.6%
decrease in percent body fat ([3]; 15 day treatment, ED80 doses: PYY-AlbudAb 1.0 mg/kg, Exendin-4-AlbudAb 0.1 mg/kg, Combo ED80): 6.8%
Insulin % Change from DIO Vehicle ([3]; ED80 Doses: Exn-Alb 0.1 mg/kg, Combo): ↓-56%
ALT % Change from DIO Vehicle [3, 8]: ↓-57%*
AST % Change from DIO Vehicle [3, 8]: ↓-41%*
Creatinine % Change from DIO Vehicle [3, 8]: ↓-17%*
Glucose % Change from DIO Vehicle [3, 8]: ↓-27%*
Total Bilirubin % Change from DIO Vehicle [3, 8]: ↑21%*
Total Cholesterol % Change from DIO Vehicle [3, 8]: ↓-24%*
Ghrelin levels ([3]; Exendin-4-AlbudAb monotherapy groups, level approximately equal to the combination groups): elevated
decrease in body weight relative to vehicle ([3]; day 7, ED80 doses: PYY-AlbudAb 1.0 mg/kg, Exendin-4-AlbudAb 0.1 mg/kg, Combo ED80 = both mixed): 13.0%
inhibition of feeding / food intake ([3]; day 14, ED80 doses: PYY-AlbudAb 1.0 mg/kg, Exendin-4-AlbudAb 0.1 mg/kg, Combo ED80): 0.8%
decrease in body weight vs. vehicle ([3]; day 15, ED20 doses: PYY-AlbudAb 0.1 mg/kg, Exendin-4-AlbudAb 0.01 mg/kg, Combo ED20 = both mixed, s.c. every two days): 4.5%
decrease in body weight from vehicle ([3]; day 15, ED80 doses: PYY-AlbudAb 1.0 mg/kg, Exendin-4-AlbudAb 0.1 mg/kg, Combo ED80 = both mixed): 16.8%
microscopic change in brown adipose tissue (histopathology) ([3]; day 16, Combo ED20, Exendin-4-AlbudAb 0.01 mg/kg): decreased cytoplasmic lipid droplets
microscopic change in brown adipose tissue (histopathology) ([3]; day 16, Combo ED80, PYY-AlbudAb 1.0 mg/kg, Exendin-4-AlbudAb 0.1 mg/kg, Exendin-4 0.1 mg/kg): decreased cytoplasmic lipid droplets
Amylin levels in plasma [3, 9]: 163 pg/mL
Leptin levels in plasma [3, 9]: 31.4 ng/mL
fat mass lost ([3]; treatment period, ED20 doses: PYY-AlbudAb 0.1 mg/kg, Exendin-4-AlbudAb (dose not given), Combo ED20): 1.4 grams
body fat lost ([3]; treatment period, ED80 doses: PYY-AlbudAb 1.0 mg/kg, Exendin-4-AlbudAb (dose not given), Combo ED80): 5.7 grams
EC50 (GLP1R [4]; [10]): 38 pM
EC50 (GLP1R [4]; [11]): 8 pM

DAT 0116: Exendin 4 DOM7h-14 fusion, SEQ ID NO 3
EC50 (GLP1R [4]; [10]): 72 pM
EC50 (GLP1R [4]; [11]): 12 pM

DAT 0117: Exendin 4, helical linker, DOM7h-14 fusion (Table 3), SEQ ID NO 4; Table 2 calls it 2xGLP-1 (7-37) A8G DOM7h-14 fusion
Kd (Rat serum albumin (RSA)): 700 nM
Kd [5]: 130 nM
Kd [6]: 150 nM
EC50 (GLP1R [4]; [10]): 15 pM
EC50 (GLP1R [4]; [11]): 4 pM
